Data on 5 molecules can be found in patent US11130793B2, “GLP-1/GLP-2 dual agonists” (Zealand Pharma A/S, priority 2016, dated 2021).

Square brackets hold non-standard residues; d marks the D form. Peptide text beside a SMILES is read from it. Aib = CC(C)(N)C(=O)O

In one assay the target is T1, human GLP-1 receptor (Homo sapiens, UniProt P43220).
T1 construct: expressed in transfected cells
Nature of the assay: GLP-1 receptor potency assay (cAMP AlphaScreen, HEK293 cells stably expressing GLP-1R). The class given is cell-based. The conditions noted are these: cAMP response, HEK293 cells expressing human GLP-1R; read-out: EC50 GLP-1. The source says: (§1) One useful in vitro assay for measuring GLP-1 and GLP-2 receptor activity is quantitation of cAMP, i.e. 3′-5′-cyclic adenosine monophosphate, which is a second messenger essential in many biological processes, and one of the most ubiquitous mechanisms for regulating cellular functions. […] Test compounds eliciting an increase in the intracellular level of cAMP can be tested in these assays, and the response normalized relative to a positive and negative control (vehicle) to calculate the EC50 and maximal response from the concentration response curve using the 4-parameter logistic (4PL) nonlinear model for curve fitting.
The cDNA encoding the human glucagon-like peptide 1 receptor (GLP-1R) (primary accession number P43220) was cloned from the cDNA BC112126 (MGC:138331/IMAGE:8327594). The DNA encoding the GLP-1-R was amplified by PCR using primers encoding terminal restriction sites for subcloning. The 5′-end primers additionally encoded a near Kozak consensus sequence to ensure efficient translation. […] The PCR products encoding the GLP-1-R were subcloned into a mammalian expression vector containing a neomycin (G418) resistance marker. The mammalian expression vectors encoding the GLP-1-R were transfected into HEK293 cells by a standard calcium phosphate transfection method. 48 hours post-transfection, cells were seeded for limited dilution cloning and selected with 1 mg/ml G418 in the culture medium. Following 3 weeks in G418 selection clones were picked and tested in a functional GLP-1 receptor potency assay as described below.
(§2) The cAMP AlphaScreen assay from Perkin Elmer was used to quantitate the cAMP response to activation of the GLP1 and GLP2 receptor, respectively. […] Data from test compounds eliciting an increase in the intracellular level of cAMP were normalized relative to the positive and negative control (vehicle) to calculate the EC50 and maximal response from the concentration response curve.

The next assay concerns the target T2, human GLP-2 receptor (Homo sapiens, UniProt O95838, D470N).
T2 sequence (O95838 1-553 D470N): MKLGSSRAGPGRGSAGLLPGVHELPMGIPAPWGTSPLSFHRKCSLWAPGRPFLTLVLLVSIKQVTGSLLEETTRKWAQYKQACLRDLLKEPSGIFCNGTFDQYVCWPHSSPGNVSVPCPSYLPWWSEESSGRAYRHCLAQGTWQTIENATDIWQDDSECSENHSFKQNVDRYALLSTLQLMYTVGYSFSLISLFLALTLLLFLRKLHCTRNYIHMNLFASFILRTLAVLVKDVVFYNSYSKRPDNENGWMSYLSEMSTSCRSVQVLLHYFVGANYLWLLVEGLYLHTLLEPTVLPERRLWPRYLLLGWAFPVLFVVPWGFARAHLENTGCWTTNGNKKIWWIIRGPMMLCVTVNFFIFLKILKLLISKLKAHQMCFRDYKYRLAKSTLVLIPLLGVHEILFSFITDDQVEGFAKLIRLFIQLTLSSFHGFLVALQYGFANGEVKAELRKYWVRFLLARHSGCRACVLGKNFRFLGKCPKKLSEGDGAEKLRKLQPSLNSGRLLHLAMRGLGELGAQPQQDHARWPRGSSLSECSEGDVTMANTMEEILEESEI
Briefly: GLP-2 receptor potency assay (cAMP AlphaScreen, HEK293 cells stably expressing GLP-2R). It is filed as cell-based. The conditions noted are these: cAMP response, HEK293 cells expressing human GLP-2R.
Text: as §1
The hGLP2-R was purchased from MRC-geneservice, Babraham, Cambridge as an Image clone: 5363415 (11924-I17). For subcloning into a mammalian expression vector, primers for subcloning were obtained from DNA-Technology, Risskov, Denmark. The 5′ and 3′ primers used for the PCR reaction include terminal restriction sites for cloning and the context of the 5′ primer is modified to a Kozak consensus without changing the sequence of the product encoded by the ORF. A standard PCR reaction was run using Image clone 5363415 (11924-117) as a template with the above mentioned primers and Polymerase Herculase II Fusion in a total vol. of 50 μl. The generated PCR product was purified using GFX PCR and Gel band purification kit, digested with restriction enzymes and cloned into the mammalian expression vector using Rapid DNA Ligation Kit. Ligation reaction was transformed to XL10 Gold Ultracompetent cells and colonies were picked for DNA production using Endofree Plasmid maxi kit. Subsequent sequence analysis was conducted by MWG Eurofins, Germany.
HEK293 cells were transfected using the Lipofectamine PLUS transfection method. The day before transfection, HEK293 cells were seeded in two T75 flasks at a density of 2×10^6 cells/T75 flask in cell culturing medium without antibiotics. On the day of transfection, cells were washed with 1×DPBS and medium was replaced with Optimem to a volume of 5 mL/T75 flask before addition of Lipofectamine-plasmid complexes were added gently and drop wise to the cells in T75 flasks and replaced with growth medium after 3 hours and again to growth medium supplemented with 500 μg/mL G418 after 24 hours. Following 4 weeks in G418 selection, clones were picked and tested in a functional GLP-2 receptor potency assay as described below.
as §2

For assay [1], the target named is human glucagon-like peptide 1 receptor (GLP-1R) (human, UniProt P43220). Briefly: cell-based or functional assay.
The target of assay [2] is T3, human GLP-2 receptor (hGLP2-R) (human, UniProt O95838).
T3 sequence: T2 sequence (O95838 1-553 D470N)
Nature of the assay: cell-based or functional assay.

T1 sequence (P43220 24-463): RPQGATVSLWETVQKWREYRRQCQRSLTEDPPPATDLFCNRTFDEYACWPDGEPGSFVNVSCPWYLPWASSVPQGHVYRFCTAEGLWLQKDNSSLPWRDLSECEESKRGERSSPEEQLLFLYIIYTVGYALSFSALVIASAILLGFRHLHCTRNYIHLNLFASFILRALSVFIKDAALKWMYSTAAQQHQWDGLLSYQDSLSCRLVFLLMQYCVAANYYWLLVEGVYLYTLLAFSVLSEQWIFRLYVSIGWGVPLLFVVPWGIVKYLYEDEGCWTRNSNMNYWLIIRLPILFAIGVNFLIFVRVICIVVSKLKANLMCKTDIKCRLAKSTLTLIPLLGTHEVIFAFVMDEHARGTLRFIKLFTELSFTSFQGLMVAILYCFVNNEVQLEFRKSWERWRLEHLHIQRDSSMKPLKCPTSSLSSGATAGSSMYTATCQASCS

For `CC[C@H](C)[C@H](NC(=O)[C@H](CC(C)C)NC(=O)[C@H](Cc1c[nH]c2ccccc12)NC(=O)[C@H](C)NC(=O)[C@@H](NC(=O)[C@H](Cc1ccccc1)NC(=O)[C@H](CC(=O)O)NC(=O)[C@H](CCCNC(=N)N)NC(=O)[C@H](C)NC(=O)[C@H](C)NC(=O)[C@H](CCC(N)=O)NC(=O)[C@H](CCC(=O)O)NC(=O)[C@H](CC(=O)O)NC(=O)[C@H](CC(C)C)NC(=O)[C@@H](NC(=O)[C@@H](NC(=O)[C@H](C)NC(=O)[C@H](CC(C)C)NC(=O)[C@H](CCC(=O)O)NC(=O)[C@H](CO)NC(=O)[C@H](CO)NC(=O)[C@H](Cc1ccccc1)NC(=O)[C@@H](NC(=O)CNC(=O)[C@H](CCC(=O)O)NC(=O)C(C)(C)NC(=O)[C@@H](N)Cc1c[nH]cn1)[C@@H](C)O)[C@@H](C)O)[C@@H](C)CC)[C@@H](C)CC)C(=O)N[C@@H](C)C(=O)N[C@@H](Cc1c[nH]cn1)C(=O)N[C@@H](CCCCN)C(=O)N[C@H](C(=O)N[C@H](C(=O)N[C@@H](CC(=O)O)C(=O)O)[C@@H](C)O)[C@@H](C)CC` [Compound 2] (H-H[Aib]EGTFSSELATILDEQAARDFIAWLIAHKITD-OH), the EC50 was 0.046 nM on human GLP-1 receptor and 0.034 nM on human GLP-2 receptor.

As to `CC[C@H](C)[C@H](NC(=O)[C@H](CC(C)C)NC(=O)[C@H](Cc1c[nH]c2ccccc12)NC(=O)[C@H](C)NC(=O)[C@@H](NC(=O)[C@H](Cc1ccccc1)NC(=O)[C@H](CC(=O)O)NC(=O)[C@H](CCCNC(=N)N)NC(=O)[C@H](C)NC(=O)[C@H](C)NC(=O)[C@H](CCC(N)=O)NC(=O)[C@H](CCC(=O)O)NC(=O)[C@H](CC(=O)O)NC(=O)[C@H](CC(C)C)NC(=O)[C@@H](NC(=O)[C@@H](NC(=O)[C@H](C)NC(=O)[C@H](CC(C)C)NC(=O)[C@H](CCC(=O)O)NC(=O)[C@H](CC(=O)O)NC(=O)[C@@H](NC(=O)[C@H](Cc1ccccc1)NC(=O)[C@@H](NC(=O)CNC(=O)[C@H](CCC(=O)O)NC(=O)C(C)(C)NC(=O)[C@@H](N)Cc1c[nH]cn1)[C@@H](C)O)[C@@H](C)O)[C@@H](C)O)[C@@H](C)CC)[C@@H](C)CC)C(=O)N[C@@H](C)C(=O)N[C@@H](Cc1c[nH]cn1)C(=O)N[C@@H](CCCCN)C(=O)N[C@H](C(=O)N[C@H](C(=O)N[C@@H](CC(=O)O)C(=O)O)[C@@H](C)O)[C@@H](C)CC` [Compound 9] (H-H[Aib]EGTFTDELATILDEQAARDFIAWLIAHKITD-OH), the values for the EC50 at human GLP-1 receptor and on human GLP-2 receptor were 0.007 nM and 0.041 nM, respectively.

Take `CC[C@H](C)[C@H](NC(=O)[C@H](CC(C)C)NC(=O)[C@H](Cc1c[nH]c2ccccc12)NC(=O)[C@H](C)NC(=O)[C@@H](NC(=O)[C@H](Cc1ccccc1)NC(=O)[C@H](CC(=O)O)NC(=O)[C@H](CCCNC(=N)N)NC(=O)[C@H](C)NC(=O)[C@H](C)NC(=O)[C@H](CCC(N)=O)NC(=O)[C@H](CCC(=O)O)NC(=O)[C@H](CC(=O)O)NC(=O)[C@H](CC(C)C)NC(=O)[C@@H](NC(=O)[C@@H](NC(=O)[C@H](CO)NC(=O)[C@H](CC(C)C)NC(=O)[C@H](CCC(=O)O)NC(=O)[C@H](CO)NC(=O)[C@@H](NC(=O)[C@H](Cc1ccccc1)NC(=O)[C@@H](NC(=O)CNC(=O)[C@H](CCC(=O)O)NC(=O)C(C)(C)NC(=O)[C@@H](N)Cc1c[nH]cn1)[C@@H](C)O)[C@@H](C)O)[C@@H](C)O)[C@@H](C)CC)[C@@H](C)CC)C(=O)N[C@@H](C)C(=O)N[C@@H](Cc1c[nH]cn1)C(=O)N[C@@H](CCCCN)C(=O)N[C@H](C(=O)N[C@H](C(=O)N[C@@H](CC(=O)O)C(=O)O)[C@@H](C)O)[C@@H](C)CC` [Compound 10] (H-H[Aib]EGTFTSELSTILDEQAARDFIAWLIAHKITD-OH): the EC50 amounted to 0.005 nM at human GLP-1 receptor and 0.05 nM on human GLP-2 receptor.

Consider `CC[C@H](C)[C@H](NC(=O)[C@H](Cc1ccccc1)NC(=O)[C@H](CC(=O)O)NC(=O)[C@H](CCCNC(=N)N)NC(=O)[C@H](C)NC(=O)[C@H](C)NC(=O)[C@H](CC(C)C)NC(=O)[C@H](CC(N)=O)NC(=O)[C@H](CC(=O)O)NC(=O)[C@H](CC(C)C)NC(=O)[C@@H](NC(=O)[C@@H](NC(=O)[C@H](CC(N)=O)NC(=O)[C@H](CCSC)NC(=O)[C@H](CCC(=O)O)NC(=O)[C@H](CC(=O)O)NC(=O)[C@H](CO)NC(=O)[C@H](Cc1ccccc1)NC(=O)[C@H](CO)NC(=O)CNC(=O)[C@H](CC(=O)O)NC(=O)CNC(=O)[C@@H](N)Cc1c[nH]cn1)[C@@H](C)O)[C@@H](C)CC)C(=O)N[C@@H](CC(N)=O)C(=O)N[C@@H](Cc1c[nH]c2ccccc12)C(=O)N[C@@H](CC(C)C)C(=O)N[C@H](C(=O)N[C@@H](CCC(N)=O)C(=O)N[C@H](C(=O)N[C@@H](CCCCN)C(=O)N[C@H](C(=O)N[C@H](C(=O)N[C@@H](CC(=O)O)C(=O)O)[C@@H](C)O)[C@@H](C)CC)[C@@H](C)O)[C@@H](C)CC` [Teduglutide, [Gly2]-hGLP-2 (1-33), reference compound], for which the EC50 on human GLP-1 receptor amounted to 39 nM.

B1: Compound 41 (peptide)
peptide: H-H[Aib]EGSFSSELATILDEQAARDFIAWLIQHKITD-OH
SMILES: CC[C@H](C)[C@H](NC(=O)[C@H](Cc1ccccc1)NC(=O)[C@H](CC(=O)O)NC(=O)[C@H](CCCNC(=N)N)NC(=O)[C@H](C)NC(=O)[C@H](C)NC(=O)[C@H](CCC(N)=O)NC(=O)[C@H](CCC(=O)O)NC(=O)[C@H](CC(=O)O)NC(=O)[C@H](CC(C)C)NC(=O)[C@@H](NC(=O)[C@@H](NC(=O)[C@H](C)NC(=O)[C@H](CC(C)C)NC(=O)[C@H](CCC(=O)O)NC(=O)[C@H](CO)NC(=O)[C@H](CO)NC(=O)[C@H](Cc1ccccc1)NC(=O)[C@H](CO)NC(=O)CNC(=O)[C@H](CCC(=O)O)NC(=O)C(C)(C)NC(=O)[C@@H](N)Cc1c[nH]cn1)[C@@H](C)O)[C@@H](C)CC)C(=O)N[C@@H](C)C(=O)N[C@@H](Cc1c[nH]c2ccccc12)C(=O)N[C@@H](CC(C)C)C(=O)N[C@H](C(=O)N[C@@H](CCC(N)=O)C(=O)N[C@@H](Cc1c[nH]cn1)C(=O)N[C@@H](CCCCN)C(=O)N[C@H](C(=O)N[C@H](C(=O)N[C@@H](CC(=O)O)C(=O)O)[C@@H](C)O)[C@@H](C)CC)[C@@H](C)CC
Consider B1, for which, in assay [1], the “EC50 GLP-1 (nM); cAMP AlphaScreen” value worked out at 0.078 nM. Further, the “EC50 GLP-2 (nM); cAMP AlphaScreen” value in assay [2] stood at 0.026 nM.
